Laboratory results reported in US12006289B2, “Potassium channel inhibitors” (Saniona A/S, priority 2019, dated 2024).

How the values were obtained:
[1] = statement in words; cited from earlier work
mouse model of ARDS = details: treatment with classical KCa3.1 inhibitors; cited from earlier work
[2] = Solubility of compounds in 50 mM phosphate buffer pH 7.4 by HPLC; type: physicochemical
Method: Solubility is calculated using the following formula: […]

[3] = biological target: erythrocyte KCa3.1 channels (Homo sapiens (Human), UniProt O15554); experiment: Erythrocyte KCa3.1 assay; type: cell-based; details: human erythrocytes, A23187-activated, 37° C.; read-out: RBC K (in vitro) Human IC50
Method: Human blood was drawn from healthy human volunteers in a standard heparinized blood sampling vial (Vacutainer, Li/heparin, BD Bioscience, Plymouth, UK). The erythrocytes were packed by centrifugation, and the plasma and buffy coat were removed by aspiration. Erythrocytes were washed three times in the experimental salt solution and then stored at 0° C. until use. Blood samples from NMRI mice or from Wistar rats were treated similarly. The methodological principle is outlined in Macey et al. (1978) and further described in Strøbæk et al. (2013). Activation of the erythrocyte KCa3.1 channels were obtained by addition of the Ca^2+ ionophore A23187, which causes synchronized hyperpolarization, which is reported as a CCCP-mediated shift in the unbuffered extracellular pH of the erythrocyte suspension. Standard procedure: 3 mL unbuffered experimental salt solution (in mM: 2 KCl, 154 NaCl, 0.05 CaCl2) was heated to 37° C. with stirring. Packed erythrocytes were added (50 μL, final cytocrit 1.5%), and the extracellular pH (pHo) followed with a glass/calomel (pHG200-8/REF200, Radiometer, Denmark) electrode pair. CCCP (3 μL, final concentration 20 μM) was added followed by varying concentrations of test compounds (DMSO concentration constant). After pH stabilization at ˜7.2, A23187 (3 μL, final concentration 0.33 μM) was added to initiate the experiment. After the peak hyperpolarization was attained, the intracellular pH (pHi constant during the experiment) was found by haemolysing the erythrocytes via addition of 100 μL of Triton-X100.
The erythrocyte membrane potential, Vm, was calculated according to: Vm=−61.5 mV×(pHo−pHi) and the fractional remaining Ca^2+-activated K^+-conductance at the concentration C of blocker, fGK(C), was calculated from
[formula] where the K^+ equilibrium potential EK=−107 mV, the Cl^− equilibrium potential ECl=−12 mV and the Vm(0) and Vm(C) are the peak hyperpolarizations in the control and in the presence of a concentration of C of blocker respectively.
IC50 values for compounds were calculated from a plot of fGK(C) versus C by a fit to the Hill equation, using a custom program written in the IGOR-Pro software (WaveMetrics, Lake Oswego, OR, USA). All IC50-values are reported in μM.

[4] = 50 mM potassium phosphate buffer pH 7.40, 16 hr at ~25° C., 1600 μM incubation concentration

Measured Solubility in pH 7.4 phosphate buffer (μM) (rounded) ([2]; 16 h, pH 7.4)	IC50 [3] [nM]	Measured Solubility in pH 7.4 phosphate buffer (mg/ml) [2, 4] [mg/ml]	Measured Solubility in pH 7.4 phosphate buffer (μM) (rounded) [2, 4]	Compound	Water solubility [1]	Gas exchange in mouse model of ARDS (mouse model of ARDS)
1600	200			CC(C)OC(=O)N(C[C@@H]1CCCN1)C1(c2ccc(F)c(C(F)(F)F)c2)CC1 [[44], Isopropyl (S)-(1-(4-fluoro-3-(trifluoromethyl)phenyl)cyclopropyl)(pyrrolidin-2-ylmethyl)carbamate]		
1500	14			CC(C)(N)CN(CC1CC1)C1(c2ccc(F)c(C(F)(F)F)c2)CC1 [[8], N1-(cyclopropylmethyl)-N1-(1-(4-fluoro-3-(trifluoromethyl)phenyl)cyclopropyl)-2-methyl propane-1,2-diamine]		
	340	0.6118	1500	COC(=O)N(C[C@H]1COCCN1)C1(c2ccc(F)c(C(F)(F)F)c2)CC1 [[42], Methyl (S)-(1-(4-fluoro-3-(trifluoromethyl)phenyl)cyclopropyl)(morpholin-3-ylmethyl) carbamate]		
1600	400			CN1CCC1CN(CC(C)(C)O)C1(c2ccc(F)c(C(F)(F)F)c2)CC1 (stereo not drawn) [[16], 1-((1-(4-fluoro-3-(trifluoromethyl)phenyl)cyclopropyl)((1-methylazetidin-2-yl)methyl)amino)-2-methylpropan-2-ol]		

More lines, now with the values behind:

Compound	Measured Solubility in pH 7.4 phosphate buffer (μM) (rounded) ([2]; 16 h, pH 7.4)	IC50 [3] [nM]	Measured Solubility in pH 7.4 phosphate buffer (mg/ml) [2, 4] [mg/ml]	Measured Solubility in pH 7.4 phosphate buffer (μM) (rounded) [2, 4]	Water solubility [1]	Gas exchange in mouse model of ARDS (mouse model of ARDS)
NC(=O)C(c1ccccc1)(c1ccc(F)cc1)c1ccc(F)cc1 [senicapoc]					extremely low water solubility	improved gas exchange
COC(=O)N(CC(C)(C)N)C1(c2ccc(F)c(C(F)(F)F)c2)CC1 [[2], Methyl (2-amino-2-methylpropyl)(1-(4-fluoro-3-(trifluoromethyl)phenyl)cyclopropyl)carbamate]	1600	86				
Clc1ccccc1C(c1ccccc1)(c1ccccc1)n1cccn1 [TRAM-34]					extremely low water solubility	improved gas exchange
COC(=O)N(CCN(C)C)C1(c2ccc(F)c(C(F)(F)F)c2)CC1 [[1], Methyl N-(2-(dimethylamino)ethyl)-N-(1-(4-fluoro-3-(trifluoromethyl)phenyl)cyclopropyl) carbamate]		330	0.5409	1600		
COC(=O)N(CC1(N)CC1)C1(c2ccc(F)c(C(F)(F)F)c2)CC1 [[3], Methyl ((1-aminocyclopropyl)methyl)(1-(4-fluoro-3-(trifluoromethyl)phenyl)cyclopropyl) carbamate]		160	0.5599	1600		
